Results as given in patent US20240132484A1, “BROAD SPECTRUM ANTIVIRAL COMPOUNDS TARGETING THE SKI COMPLEX” (priority 2020, published 2024).
“And” between values parts separate entries of the source, which are not always exact repeats. Equal values may be shown once. Read-outs that look alike come from different tables or passages of the source.

Experiments:
[1] = system: SARS2; type: cell-based, SARS-CoV-2; details: for Percentage Infection Relative to Appropriate DMSO Control: avg background subtraction; for Percentage Inhibition Average 1 μM / Screening data (Relative infection to DMSO controls) Average 1 μM: SARS2, 1 μM; for Screening data (Relative infection to DMSO controls) Average 1 μM / Screening data (Relative infection to DMSO controls) Average 5 μM / Screening data (Relative infection to DMSO controls) Average 10 μM / Screening data (Relative infection to DMSO controls) Average 25 μM / Screening data (Relative infection to DMSO controls) Average 50 μM / Average (relative infection to DMSO over the 5 tested concentrations): 100=DMSO control; for Percentage Inhibition Average 5 μM / Screening data (Relative infection to DMSO controls) Average 5 μM: SARS2, 5 μM; for Percentage Inhibition Average 10 μM / Screening data (Relative infection to DMSO controls) Average 10 μM: SARS2, 10 μM; for Percentage Inhibition Average 25 μM / Screening data (Relative infection to DMSO controls) Average 25 μM: SARS2, 25 μM; for Percentage Inhibition Average 50 μM / Screening data (Relative infection to DMSO controls) Average 50 μM: SARS2, 50 μM; for Average (relative infection to DMSO over the 5 tested concentrations): SARS2, average over 1 to 50 uM
[2] = system: cells (nuclei count); details: for Relative cell count to DMSO controls, Average 1 μM / Relative cell count to DMSO controls, Average 5 μM / Relative cell count to DMSO controls, Average 10 μM / Relative cell count to DMSO controls, Average 25 μM / Relative cell count to DMSO controls, Average 50 μM: toxicity data, 100=DMSO control; for Relative cell count to DMSO controls, Average (for correlation analysis): average value over the 5 tested concentrations (1 to 50 uM)

## CCOc1cccc(CNCCc2ccccc2F)c1OCC(O)CN1CCN(C)CC1 (centres unmarked) [SILCS3]
[1]; 1 uM, Exp 1 (SMW454), single wells
  Percentage Infection Relative to Appropriate DMSO Control: 102.18% and 96.08% and 79.31%
[1]; 5 uM, Exp 1 (SMW454), single wells
  Percentage Infection Relative to Appropriate DMSO Control: 110.38% and 99.87% and 94.40%
[1]; 10 uM, Exp 1 (SMW454), single wells
  Percentage Infection Relative to Appropriate DMSO Control: 98.93% and 87.99% and 82.55%
[1]; 25 uM, Exp 1 (SMW454), single wells
  Percentage Infection Relative to Appropriate DMSO Control: 73.36% and 69.10% and 58.07%
[1]; 50 uM, Exp 1 (SMW454), single wells
  Percentage Infection Relative to Appropriate DMSO Control: 38.76% and 39.55% and 35.10%
[1]; Average of Exp 1-3, n 9, 1 uM
  Infection Data, Average, Mean: 77.07%
[1]; Average of Exp 1-3, n 9, 5 uM
  Infection Data, Average, Mean: 48.45%
[1]; Average of Exp 1-3, n 9, 10 uM
  Infection Data, Average, Mean: 46.02%
[1]; Average of Exp 1-3, n 9, 25 uM
  Infection Data, Average, Mean: 22.24%
[1]; Average of Exp 1-3, n 9, 50 uM
  Infection Data, Average, Mean: 12.53%
[1]; Exp 2 (SMW466), 1 uM
  Percentage Infection Relative to Appropriate DMSO Control: 97.83% and 85.97% and 85.21%
[1]; Exp 2 (SMW466), 5 uM
  Percentage Infection Relative to Appropriate DMSO Control: 25.85% and 18.37% and 25.06%
[1]; Exp 2 (SMW466), 10 uM
  Percentage Infection Relative to Appropriate DMSO Control: 15.71% and 12.38% and 8.39%
[1]; Exp 2 (SMW466), 25 uM
  Percentage Infection Relative to Appropriate DMSO Control: −2.25% and −2.53% and 0.99%
[1]; Exp 2 (SMW466), 50 uM
  Percentage Infection Relative to Appropriate DMSO Control: −2.52% and −3.00% and 0.03%
[1]; Exp 3 (SMW480), 1 uM
  Percentage Infection Relative to Appropriate DMSO Control: 55.68% and 51.29% and 40.12%
[1]; Exp 3 (SMW480), 25 uM
  Percentage Infection Relative to Appropriate DMSO Control: 6.43% and −0.12% and −2.91%
[1]
  Percentage Inhibition Average 1 μM: 22.93%
  Screening data (Relative infection to DMSO controls) Average 1 μM: 77.07
  Percentage Inhibition Average 5 μM: 51.55%
  Screening data (Relative infection to DMSO controls) Average 5 μM: 48.45
  Percentage Inhibition Average 10 μM: 53.98%
  Screening data (Relative infection to DMSO controls) Average 10 μM: 46.02
  Percentage Inhibition Average 25 μM: 77.76%
  Screening data (Relative infection to DMSO controls) Average 25 μM: 22.24
  Percentage Inhibition Average 50 μM: 87.47%
  Screening data (Relative infection to DMSO controls) Average 50 μM: 12.53
  Average (relative infection to DMSO over the 5 tested concentrations): 41.26
[2]
  Relative cell count to DMSO controls, Average 1 μM: 114.7
  Relative cell count to DMSO controls, Average 5 μM: 125.56
  Relative cell count to DMSO controls, Average 10 μM: 124.47
  Relative cell count to DMSO controls, Average 25 μM: 117.43
  Relative cell count to DMSO controls, Average 50 μM: 86.97
  Relative cell count to DMSO controls, Average (for correlation analysis): 113.83
[2]; Average of Exp 1-3, n 9, 1 uM
  Toxicity Data, Average, Mean: 114.70%
[2]; Average of Exp 1-3, n 9, 5 uM
  Toxicity Data, Average, Mean: 125.56%
[2]; Average of Exp 1-3, n 9, 10 uM
  Toxicity Data, Average, Mean: 124.47%
[2]; Average of Exp 1-3, n 9, 25 uM
  Toxicity Data, Average, Mean: 117.43%
[2]; Average of Exp 1-3, n 9, 50 uM
  Toxicity Data, Average, Mean: 86.97%
[2]; Exp 1 (SMW454), 1 uM
  Toxicity Data, nuclei count relative to DMSO controls: 108.7% and 108.1% and 97.2%
[2]; Exp 1 (SMW454), 5 uM
  Toxicity Data, nuclei count relative to DMSO controls: 105.8% and 104.1% and 93.5%
[2]; Exp 1 (SMW454), 10 uM
  Toxicity Data, nuclei count relative to DMSO controls: 112.5% and 109.3% and 98.7%
[2]; Exp 1 (SMW454), 25 uM
  Toxicity Data, nuclei count relative to DMSO controls: 102.5% and 101.9% and 95.9%
[2]; Exp 1 (SMW454), 50 uM
  Toxicity Data, nuclei count relative to DMSO controls: 93.7% and 93.9% and 95.7%
[2]; Exp 2 (SMW466), 1 uM
  Toxicity Data, nuclei count relative to DMSO controls: 110.2% and 122.4% and 99.6%
[2]; Exp 2 (SMW466), 5 uM
  Toxicity Data, nuclei count relative to DMSO controls: 143.6% and 141.9% and 102.7%
[2]; Exp 2 (SMW466), 10 uM
  Toxicity Data, nuclei count relative to DMSO controls: 139.8% and 146.3% and 105.1%
[2]; Exp 2 (SMW466), 25 uM
  Toxicity Data, nuclei count relative to DMSO controls: 131.0% and 122.3% and 75.1%
[2]; Exp 2 (SMW466), 50 uM
  Toxicity Data, nuclei count relative to DMSO controls: 81.8% and 76.6% and 53.5%
[2]; Exp 3 (SMW480), 1 uM
  Toxicity Data, nuclei count relative to DMSO controls: 131.1% and 136.5% and 118.6%
[2]; Exp 3 (SMW480), 5 uM
  Toxicity Data, nuclei count relative to DMSO controls: 154.5% and 147.8% and 136.1%
[2]; Exp 3 (SMW480), 10 uM
  Toxicity Data, nuclei count relative to DMSO controls: 156.3% and 129.5% and 122.8%
[2]; Exp 3 (SMW480), 25 uM
  Toxicity Data, nuclei count relative to DMSO controls: 157.9% and 155.8% and 114.5%
[2]; Exp 3 (SMW480), 50 uM
  Toxicity Data, nuclei count relative to DMSO controls: 117.7% and 89.8% and 80.0%

## CN(C)CCN(Cc1ccccc1)Cc1cc(C#CCO)cs1 [SILCS5]
[1]
  Percentage Infection Relative to DMSO Control, Average, Mean: 75.63% and 81.28% and 98.58% and 104.84% and 111.97%
  Percentage Inhibition Average 1 μM: −11.97%
  Screening data (Relative infection to DMSO controls) Average 1 μM: 111.97
  Percentage Inhibition Average 5 μM: −4.84%
  Screening data (Relative infection to DMSO controls) Average 5 μM: 104.84
  Percentage Inhibition Average 10 μM: 1.42%
  Screening data (Relative infection to DMSO controls) Average 10 μM: 98.58
  Percentage Inhibition Average 25 μM: 18.72%
  Screening data (Relative infection to DMSO controls) Average 25 μM: 81.28
  Percentage Inhibition Average 50 μM: 24.37%
  Screening data (Relative infection to DMSO controls) Average 50 μM: 75.63
  Average (relative infection to DMSO over the 5 tested concentrations): 94.46
[2]
  Relative cell count to DMSO controls, Average 1 μM: 113.75
  Relative cell count to DMSO controls, Average 5 μM: 108.79
  Relative cell count to DMSO controls, Average 10 μM: 102.76
  Relative cell count to DMSO controls, Average 25 μM: 105.3
  Relative cell count to DMSO controls, Average 50 μM: 75.59
  Relative cell count to DMSO controls, Average (for correlation analysis): 101.24
[2]; Average of Exp 1-3, 1 uM
  Toxicity Data, Average, Mean (relative to DMSO control): 113.75%
[2]; Average of Exp 1-3, 5 uM
  Toxicity Data, Average, Mean (relative to DMSO control): 108.79%
[2]; Average of Exp 1-3, 10 uM
  Toxicity Data, Average, Mean (relative to DMSO control): 102.76%
[2]; Average of Exp 1-3, 25 uM
  Toxicity Data, Average, Mean (relative to DMSO control): 105.30%
[2]; Average of Exp 1-3, 50 uM
  Toxicity Data, Average, Mean (relative to DMSO control): 75.59%
